# Test results from PubChem BioAssay (NCI).
#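 Test compounds were applied to cells in 96-well plates for 48 hours at 5 doses. At the GI50, growth is halved. TGI marks complete inhibition of growth.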
# Assays:
# Test in all cases: NCI tumour cell line growth inhibition, 48 h
# XF 498 CNS = system: XF 498 CNS
# LXFL 529 NSCLC = system: LXFL 529 NSCLC
# RXF-631 renal = system: RXF-631 renal
# HOP-18 NSCLC = system: HOP-18 NSCLC
# P388 leukemia = system: P388 leukemia
# SN12K1 renal = system: SN12K1 renal
# P388/ADR leukemia = system: P388/ADR leukemia
SMILES,TGI (XF 498 CNS),TGI (LXFL 529 NSCLC),TGI (RXF-631 renal),TGI (HOP-18 NSCLC),GI50 (HOP-18 NSCLC),TGI (P388 leukemia),TGI (SN12K1 renal),TGI (P388/ADR leukemia)
O=C(Nc1nn[nH]n1)c1nc(-c2ccccc2)cc(=O)[nH]1,> 100 µM,> 100 µM,–,–,–,–,–,–
O=c1c2ccccc2nc2ccc3c(Cl)[nH][nH]c3c12,–,> 100 µM,> 100 µM,> 100 µM,–,–,–,–
COc1ccc(Oc2ccccc2N)cc1,–,> 100 µM,> 100 µM,> 100 µM,–,–,–,–
CSc1cnc2ccccc2c1Sc1c[nH]c2ccccc2c1=O,–,46.3 µM,–,67.8 µM,–,–,–,–
CCOC(=O)C1=C(O)c2ccc(C)cc2C(=O)C1=O,> 100 µM,–,–,> 100 µM,–,–,–,–
COc1cc2c(c(OC)c1OC)-c1ccc(SC)c(=O)cc1[C@@H](NCc1ccc([N+](=O)[O-])cc1)CC2,–,> 100 µM,–,> 100 µM,> 100 µM,–,–,–
Nc1c(S(=O)(=O)O)cc(S(=O)(=O)O)c2ccc(N=Nc3ccc(/C=C/c4ccc(N=Nc5ccc6c(S(=O)(=O)O)cc(S(=O)(=O)O)c(N)c6c5O)cc4S(=O)(=O)O)c(S(=O)(=O)O)c3)c(O)c12,> 92.9 µM,–,–,> 100 µM,–,> 100000 nM,> 100 µM,–
CC1(C)O[C@@H](C[C@]2(C#N)C[C@H](CCl)OC(C)(C)O2)C[C@@H](C#N)O1,> 100 µM,–,–,> 100 µM,–,–,–,–
COc1ccc(C)cc(=O)c1O,–,> 100 µM,–,> 100 µM,–,–,–,–
Cc1c2ccncc2c(C)c2c1[nH]c1ccc(OCCN(C)C)cc12,2.19 µM,–,–,2.76 µM,–,67.5 nM,0.381 µM,128 nM
CN(C)CC1CCC(CN(C)C)C(=O)C1=O (centres undefined),4.95 µM,3.09 µM,–,3.07 µM,–,–,–,–
[N-]=[N+]=NCC(O)Cn1cnc2c(NC(=O)c3ccccc3)ncnc21 (centres undefined),> 100 µM,> 100 µM,–,> 100 µM,–,–,–,–
N/C(=N\N=C\c1ncccc1O)NO,69.2 µM,–,–,> 100 µM,–,12800 nM,> 69 µM,11500 nM
C=C1C(C)C2C(Cc3ccccc3)NC(=O)C23OC(=O)/C=C\CC(=O)CCC(C)C/C=C/C3C1O (centres undefined),1.07 µM,–,–,1.94 µM,–,385 nM,3.43 µM,2100 nM
